Here are results for one compound from ChEMBL document CHEMBL4190372, “Discovery of a Novel Oral Glucocorticoid Receptor Modulator (AZD9567) with Improved Side Effect Profile” (J Med Chem, 2018).

The target of one series is T1, Progesterone receptor (Homo sapiens, UniProt P06401).
T1 sequence (P06401 whole entry): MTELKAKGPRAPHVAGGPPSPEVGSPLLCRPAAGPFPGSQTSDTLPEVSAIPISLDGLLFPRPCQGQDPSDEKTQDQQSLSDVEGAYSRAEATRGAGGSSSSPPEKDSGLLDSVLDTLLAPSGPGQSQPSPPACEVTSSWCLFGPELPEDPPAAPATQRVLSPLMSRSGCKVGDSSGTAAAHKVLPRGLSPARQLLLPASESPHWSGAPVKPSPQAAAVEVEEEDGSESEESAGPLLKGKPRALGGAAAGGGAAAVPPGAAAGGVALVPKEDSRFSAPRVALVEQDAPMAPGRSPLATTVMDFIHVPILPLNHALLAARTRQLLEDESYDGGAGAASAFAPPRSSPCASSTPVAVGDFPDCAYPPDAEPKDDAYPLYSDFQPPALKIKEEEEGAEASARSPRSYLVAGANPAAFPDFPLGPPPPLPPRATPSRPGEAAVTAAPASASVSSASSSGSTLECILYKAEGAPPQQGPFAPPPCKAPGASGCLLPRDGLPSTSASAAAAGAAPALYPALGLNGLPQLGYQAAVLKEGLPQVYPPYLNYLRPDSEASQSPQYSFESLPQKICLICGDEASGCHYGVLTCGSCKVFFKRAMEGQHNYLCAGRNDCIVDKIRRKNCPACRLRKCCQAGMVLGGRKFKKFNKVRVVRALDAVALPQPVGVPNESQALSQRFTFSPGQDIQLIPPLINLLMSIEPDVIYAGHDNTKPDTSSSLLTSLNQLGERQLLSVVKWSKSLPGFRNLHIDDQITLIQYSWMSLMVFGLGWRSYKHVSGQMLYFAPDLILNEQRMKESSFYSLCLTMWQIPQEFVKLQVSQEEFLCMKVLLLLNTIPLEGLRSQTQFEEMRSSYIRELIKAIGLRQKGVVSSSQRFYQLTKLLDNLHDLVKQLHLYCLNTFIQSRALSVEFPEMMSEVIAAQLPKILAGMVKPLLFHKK
Put plainly: Displacement of [3H]progesterone from progesterone receptor in human T47D cells after 1200 mins by scintillation counting method. The class given is cell-based.

The next series deals with T2, Estrogen receptor (Homo sapiens, UniProt P03372).
T2 sequence (P03372 whole entry): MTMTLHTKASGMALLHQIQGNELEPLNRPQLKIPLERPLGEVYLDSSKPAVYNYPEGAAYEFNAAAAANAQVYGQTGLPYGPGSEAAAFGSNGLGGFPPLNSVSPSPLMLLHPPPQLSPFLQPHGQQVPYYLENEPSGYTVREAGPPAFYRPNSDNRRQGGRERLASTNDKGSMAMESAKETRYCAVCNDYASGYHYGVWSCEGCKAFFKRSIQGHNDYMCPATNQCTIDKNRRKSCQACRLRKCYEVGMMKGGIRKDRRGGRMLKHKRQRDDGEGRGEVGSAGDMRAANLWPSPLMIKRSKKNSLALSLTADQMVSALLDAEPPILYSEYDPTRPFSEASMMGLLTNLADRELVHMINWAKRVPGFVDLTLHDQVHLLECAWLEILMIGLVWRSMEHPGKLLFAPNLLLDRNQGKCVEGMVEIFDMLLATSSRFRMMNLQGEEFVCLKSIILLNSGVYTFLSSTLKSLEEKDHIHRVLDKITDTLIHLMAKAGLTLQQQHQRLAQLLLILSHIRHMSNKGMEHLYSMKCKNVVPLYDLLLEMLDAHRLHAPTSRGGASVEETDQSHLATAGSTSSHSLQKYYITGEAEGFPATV
Nature of the series: Binding affinity to human ERalpha expressed in Sf9 cells by fluoligand binding-based fluorescence polarization method.

The subject of series [1] is Rattus norvegicus. Nature of the series: Dose normalized Cmax in Han-Wistar rat at 2.1 mg/kg, po. The class given is ADME, organism-based. The conditions noted are these: in vivo.
The nature of series [2]: Terminal half life in Han-Wistar rat at 0.8 mg/kg, iv. Type of series: ADME, organism-based. The following applies: in vivo, read-out: beta t1/2 (converted).
A short description of series [3]: Terminal half life in Han-Wistar rat at 2.1 mg/kg, po. Type of series: ADME, organism-based. The conditions noted are these: in vivo, read-out: beta t1/2 (converted).
The nature of series [4]: Cmax in Han-Wistar rat plasma at 0.8 mg/kg, po. Type of series: ADME, organism-based. Set-up: dose 0.8 mg/kg, route oral.
Series [5] concerns Rattus norvegicus. Nature of the series: Antiinflammatory activity in streptococcal cell wall reactivation Lewis rat model assessed as reduction of joint swelling at 0.1 mg/kg administered once daily for 8 days by oral gavage starting 1 day prior to streptococcal cell wall challenge measured during 6 days post challenge relative to control. The class given is functional. Set-up: scale not given: the % may be the effect or the level left.

Series [6] relates to Rattus norvegicus. Nature of the series: Antiinflammatory activity in streptococcal cell wall reactivation Lewis rat model assessed as reduction of joint swelling at 0.3 mg/kg administered once daily for 8 days by oral gavage starting 1 day prior to streptococcal cell wall challenge measured during 6 days post challenge relative to control. The class given is functional. Set-up: scale not given: the % may be the effect or the level left.

The target of a further series is T3, Androgen receptor (Homo sapiens, UniProt P10275).
T3 sequence (P10275 whole entry): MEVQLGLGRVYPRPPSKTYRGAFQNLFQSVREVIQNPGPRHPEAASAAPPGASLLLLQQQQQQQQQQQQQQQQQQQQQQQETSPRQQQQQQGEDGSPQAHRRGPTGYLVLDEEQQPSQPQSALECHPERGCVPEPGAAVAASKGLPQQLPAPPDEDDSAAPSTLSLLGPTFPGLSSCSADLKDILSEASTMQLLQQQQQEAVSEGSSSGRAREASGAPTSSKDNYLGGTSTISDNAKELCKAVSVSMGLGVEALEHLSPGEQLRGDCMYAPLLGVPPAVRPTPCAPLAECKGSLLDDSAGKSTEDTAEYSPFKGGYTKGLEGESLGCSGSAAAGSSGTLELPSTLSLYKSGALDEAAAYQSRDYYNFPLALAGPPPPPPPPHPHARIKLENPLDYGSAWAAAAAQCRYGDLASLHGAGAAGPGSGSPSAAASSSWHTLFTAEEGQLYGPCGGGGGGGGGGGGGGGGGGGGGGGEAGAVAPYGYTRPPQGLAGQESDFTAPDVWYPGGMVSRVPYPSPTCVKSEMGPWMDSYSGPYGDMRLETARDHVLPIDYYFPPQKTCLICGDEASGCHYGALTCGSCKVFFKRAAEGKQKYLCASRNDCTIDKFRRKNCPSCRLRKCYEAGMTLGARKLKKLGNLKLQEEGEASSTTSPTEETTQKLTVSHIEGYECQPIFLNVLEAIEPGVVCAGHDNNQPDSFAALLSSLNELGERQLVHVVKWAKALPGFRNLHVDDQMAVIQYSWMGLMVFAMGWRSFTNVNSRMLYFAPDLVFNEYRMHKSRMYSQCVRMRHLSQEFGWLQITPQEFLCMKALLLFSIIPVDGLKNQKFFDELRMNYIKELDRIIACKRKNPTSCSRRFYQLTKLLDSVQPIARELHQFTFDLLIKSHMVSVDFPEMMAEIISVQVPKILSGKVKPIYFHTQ
Put plainly: biochemical.

Description for Androgen receptor: Displacement of [3H]methyltrienolone from androgen receptor in human LNCaP cells after 1440 mins by scintillation counting method

In the case of `CC(C)[C@H](NC(=O)C(C)(F)F)[C@H](Oc1ccc2c(cnn2-c2ccc(=O)n(C)c2)c1)c1ccccc1` [MIZACORAT], the IC50 on Progesterone receptor is 5.3 µM; at Estrogen receptor, more than 100 µM; against Androgen receptor, more than 100 µM. Besides, in the series with Rattus norvegicus [1], the Cmax/dose stood at 950 nM. Moreover, the half-life in [2] is 2.3 h; in series [3], 1.9 h. In [4], this compound yielded a Cmax of 2000 nM. Besides, the Activity is 42% in the series with Rattus norvegicus [5] and 66% in the series on Rattus norvegicus [6].
